Patent US20100285959A1, “HERBICIDAL MIXTURES” (priority 2006, published 2010)

What was measured:
arrowleaf sida (SIDRH) = assay: Test 11 field trial, preemergence; type: in vivo, Sida rhombifolia
Text: (§1) Corn seeds (hybrid ‘Pioneer 3041’) were planted in mid spring season, 5 cm deep in a clay soil having 2.6% organic matter and a pH of 5.6. Plots were 8 m long by 1.5 m wide with rows spaced 80 cm apart. Seeds were spaced 15 cm apart within the rows. The field was managed using conventional tillage practices. […] Treatments consisted of Compound 2 or
(§2) Goosegrass was not evaluated 16 or 91 days after application.

large crabgrass (DIGSA) = assay: Test 5 field trial, postemergence; type: in vivo, Digitaria sanguinalis; conditions: atrazine 1120, glufosinate 470 or glyphosate 1120 g a.i./ha alone
[1] = system: common lambsquarters (CHEAL); assay: Test 5 field trial, postemergence; type: in vivo, Chenopodium album; conditions: atrazine 1120, glufosinate 470 or glyphosate 1120 g a.i./ha alone
[2] = system: Ipomoea grandiflora (IPOGF); assay: Test 11 field trial, preemergence; type: in vivo
Text: as §1, §2

giant foxtail (SETFA) = assay: Test 10 field trial, preemergence; type: in vivo, Setaria faberi; conditions: 28 DAA; g a.i./ha: Cpd 2 100, Atrazine 1680, S-Metolachlor 1870
Text: Corn seeds (hybrid ‘Pioneer 33P65 RR’) were planted in mid spring season, 2.5 cm deep in a silt loam soil. Plots were 9.1 m long by 3.0 m wide with rows spaced 76 cm apart. The field was managed using conventional tillage practices. […] Results are the means of the three replicates.

[3] = system: common lambsquarters (CHEAL); assay: Test 8 field trial, preemergence; type: in vivo, Chenopodium album; conditions: g a.i./ha: Cpd 2 100, Atrazine 1680, S-Metolachlor 1870
Text: (§3) Corn seeds (hybrid ‘Pioneer 31G96’) were planted in mid spring season, 3.8 cm deep in a clay loam soil having 2% organic matter and a pH of 6.6. Plots were 6.1 m long by 3.0 m wide with rows spaced 76 cm apart. Seeds were spaced 15 cm apart within the rows. The field was managed using conventional tillage practices. […] A few of the weed species could not be evaluated at every timing. […] Results are the means of the three replicates.

[4] = system: Pennsylvania smartweed (POLPY); assay: Test 1 field trial, preemergence; type: in vivo, Polygonum pensylvanicum; conditions: g a.i./ha: Atrazine 1680, S-Metolachlor 1870
Text: Corn seeds (hybrid ‘Pioneer 34N43’) were planted in mid spring season, 3.8 cm deep in a silt loam soil having 4.6% organic matter and a pH of 6. Plots were 10.7 m long by 1.5 m wide with rows spaced 76 cm apart. Seeds were spaced 18 cm apart within the rows. The field was managed using conventional tillage practices. […] Results are summarized in Table 1 and are the means of the three replicates. […] Colby's Equation (Colby, S. R. “Calculating Synergistic and Antagonistic Responses of Herbicide Combinations,” Weeds, 15(1), pp 20-22 (1967)) calculates the expected additive effect of herbicidal mixtures, and for two active ingredients is of the form:
Pa+b=Pa+Pb−(PaPb/100) • wherein Pa+b is the percentage effect of the mixture expected from additive contribution of the individual components, • Pa is the observed percentage effect of the first active ingredient at the same use rate as in the mixture, and • Pb is the observed percentage effect of the second active ingredient at the same use rate as in the mixture.

common ragweed (AMBEL) = assay: Test 5 field trial, postemergence; type: in vivo, Ambrosia artemisiifolia; conditions: atrazine 1120, glufosinate 470 or glyphosate 1120 g a.i./ha alone
velvetleaf (ABUTH) = assay: Test 5 field trial, postemergence; type: in vivo, Abutilon theophrasti; conditions: atrazine 1120, glufosinate 470 or glyphosate 1120 g a.i./ha alone
common blackjack (BIDPI) = assay: Test 11 field trial, preemergence; type: in vivo, Bidens pilosa; parameters: scale not given here; conditions: atrazine 1500 or metolachlor 2500 g a.i./ha alone
Text: as §1, §2

[5] = system: Pennsylvania smartweed (POLPY); assay: Test 8 field trial, preemergence; type: in vivo, Polygonum pensylvanicum
Text: as §3

yellow foxtail (SETLU) = assay: Test 6 field trial, postemergence; type: in vivo, Setaria glauca; conditions: 1120 g a.i./ha
[6] = system: common lambsquarters (CHEAL); assay: Test 6 field trial, postemergence; type: in vivo, Chenopodium album; conditions: 1120 g a.i./ha
[7] = 16 DAA, atrazine 1500 or metolachlor 2500 g a.i./ha alone
[8] = 30 DAA, atrazine 1500 or metolachlor 2500 g a.i./ha alone
[9] = 44 DAA, atrazine 1500 or metolachlor 2500 g a.i./ha alone
[10] = 62 DAA, 1500 g a.i./ha, scale 0 to 100
[11] = 91 DAA, 1500 g a.i./ha, scale 0 to 100

## CCNc1nc(Cl)nc(NC(C)C)n1 [Atrazine, atrazine, reference compound]
Arrowleaf sida (SIDRH); [7]
  SIDRH Obs: 97
Arrowleaf sida (SIDRH); [8]
  SIDRH Obs: 100
Arrowleaf sida (SIDRH); [9]
  SIDRH Obs: 95
Arrowleaf sida (SIDRH); [10]
  SIDRH Obs: 80
Arrowleaf sida (SIDRH); [11]
  SIDRH Obs: 90
Large crabgrass (DIGSA); 16 DAA
  DIGSA Obs: 0%
Large crabgrass (DIGSA); 31 DAA
  DIGSA Obs: 0%
[1]; 16 DAA
  CHEAL Obs: 79%
[1]; 31 DAA
  CHEAL Obs: 70%
[2]; [7]
  IPOGF Obs: 97
[2]; [8]
  IPOGF Obs: 97
[2]; [9]
  IPOGF Obs: 70
[2]; [10]
  IPOGF Obs: 50
[2]; [11]
  IPOGF Obs: 40
Giant foxtail (SETFA)
  SETFA Obs: 23%
[3]; 19 DAA
  CHEAL Obs: 100%
[3]; 56 DAA
  CHEAL Obs: 100%
[4]; 28 DAA
  POLPY Obs: 93
[4]; 56 DAA
  POLPY Obs: 100
Common ragweed (AMBEL); 16 DAA
  AMBEL Obs: 45%
Common ragweed (AMBEL); 31 DAA
  AMBEL Obs: 30%
Velvetleaf (ABUTH); 16 DAA
  ABUTH Obs: 40%
Velvetleaf (ABUTH); 31 DAA
  ABUTH Obs: 13%
Common blackjack (BIDPI); 16 DAA
  BIDPI Obs: 100
Common blackjack (BIDPI); 30 DAA
  BIDPI Obs: 97
Common blackjack (BIDPI); 44 DAA
  BIDPI Obs: 80
Common blackjack (BIDPI); 62 DAA
  BIDPI Obs: 70
Common blackjack (BIDPI); 91 DAA
  BIDPI Obs: 40
[5]; 29 DAA, g a.i./ha: Cpd 2 100, Atrazine 1680, S-Metolachlor 1870
  POLPY Obs: 100%
[5]; 56 DAA, g a.i./ha: Cpd 2 100, Atrazine 1680
  POLPY Obs: 100%
Yellow foxtail (SETLU); 14 DAA
  SETLU Obs: 0%
Yellow foxtail (SETLU); 28 DAA
  SETLU Obs: 0%
[6]; 14 DAA
  CHEAL Obs: 100%
[6]; 28 DAA
  CHEAL Obs: 100%
